Results taken from EP1985629A1, “Pro-apoptotic molecules and therapeutic uses thereof” (UNIVERSITA DEGLI STUDI DI GENOVA, priority 2007, dated 2008).
Where a SMILES comes first, the peptide text is derived from it. [ ]: non-standard residue; d: D form. Aib = CC(C)(N)C(=O)O

Key:
Format in all cases: cell-based, human
U937, Jurkat, Namalwa = test: Cell growth, cell counts (trypan blue exclusion), three cell lines; conditions: 10 µM, twice every 48 h, four days
Procedure: • Figure 1 Fluorescence Anisotropy Assay. Average anisotropy values: (open square) binding assay for increasing concentrations of Bcl-XL at a fixed concentration of fluorescent Bak-BH3 peptide. […] The error bars represent standard deviations observed from triplicate experiments. • Figure 2 072RB: cell growth effects. Panel A: Cell growth of U937 cell line treated for four days every 24 h at a 1 µM 072RB concentration and every 48 h at 3, 5, 10 and 30 µM 072RB concentrations. U937 controls at day 4, cell number: 350,000 ±50,000. Number of cells seeded at day 0: 20,000. Arrows indicate treatment time. […] All cells were counted in a Burker chamber and values are expressed as percentage of the untreated control cell number. Only living cells identified by trypan blue exclusion staining were counted. […] Flow cytometry measurements of DNA content (evaluated by propidium iodide (PI) fluorescence intensity) and physical cell side-scattering (evaluated by SSC) in U937 cells treated with Int and 072RB at 10 µM, twice each 48h. […] Three main cell populations can be observed in the bivariate PI/SSC plots, one with low SSC and normal DNA content (that accounts for "live" cells in culture), another with high SSC and normal DNA content (cells undergoing "early stage of apoptosis") and another one with lower PI fluorescence (cells at "late stage of apoptosis" and debris). […]

[1] = tested on: peripheral blood lymphocytes (PBL); test: Viability of normal peripheral blood lymphocytes; conditions: for ratio of viable cells, treated versus untreated: two pulses at a 48 h interval, four days, mean ± SE
Procedure: The leukemic myelomonocytic cell line U937, the T cell leukaemia cell line Jurkat, the Burkitt lymphoma cell line Namalwa were grown in RPMI 1640 medium supplemented with 10% FBS, 1% sodium pyruvate, 1% non essential aminoacids, 1% penicillin/streptomycin. 2.5·10^4 cells were seeded on 48 wells plates (Corning Costar). The treatment was performed on triplicate wells. Drug concentration ranged from 1 µM up to 30 µM, four treatments every 24 h or two treatments every 48 h were performed. Human peripheral blood lymphocytes obtained from healthy volunteers by venipuncture, were isolated by lymphocyte separation medium (Ficoll) density gradient centrifugation. Mononuclear cells from the interphase were washed twice with PBS and resuspended in RPMI 1640 medium containing 10% FCS, glutamine and antibiotics. Phytohemagglutinin (PHA) was added at 1.5 µg/ml final concentration.
PI uptake tests were performed to assess cell viability. Cells suspended in culture medium were incubated for 5 min with 3 µg/ml PI and analysed by flow cytometry. […] At least 10,000 events were acquired on a logarithmic scale from each sample.
Bone marrow aspirates from patients with different leukaemia types were plated in tissue culture medium supplemented with 20% FCS, treated with 072RB twice every 48 h, and followed for 4 days. They were evaluated by flow cytometry DNA/SSC analysis, In Table 3 we show the percentage of [early + late apoptotic cells], according to leukaemia type and Int or 072RB dosage. To further study sensitivity to 072RB of normal cells, peripheral blood lymphocytes (PBL) isolated from four independent healthy donors were subjected to a four-days treatment with 10 µM 072RB. Treatment was performed, as usual, with two pulses at a 48 h interval. Lymphocytes were either un-stimulated or activated by PHA. […] Comparing treated and untreated normal peripheral lymphocytes, the ratio of viable cells between the two groups was 0.87 ± 0.05 (mean ± SE) for quiescent lymphocytes and 0.82 ± 0.057 for proliferating lymphocytes. This effect of 072RB on normal lymphocytes seems especially small if we consider the effects observed in leukaemia cell lines (see supplementary information), and also the effects observed in AML cells from ex vivo experiments: 0.55 ± 0.145 (mean ± SE). Table 3: Effect of 072RB on haematological malignancies (AML: acute myeloid leukaemia; ALL: acute lymphoid leukaemia; NBM: normal bone marrow): percentage of early/late apoptotic cells. Mean values from duplicate experiments are reported. The difference between the two individual values never exceeded 15% of the mean value. Ex vivo isolated cells were treated with either Int or 072RB at day 0, 2 (5, 10 µM), at day 0, 1, 2, 3 (1, 3 µM) and analysed after PI staining at day 4.

Namalwa cells = test: Morphologic analysis of apoptosis (PI, confocal microscopy); conditions: PI labeled Namalwa cells; and 48 h (072RB), 48 h (Int)
Procedure: After extensive washes, samples were incubated with PI (50µg/ml in PBS) and 100 units/ml Rnase type A and 10 mM EDTA (to inactivate endogenous nucleases) for 15 min at room temperature. After three washes, cells were put on a micro-slide, covered with a coverslip and analysed with an IX81 microscope equipped with He-Neon […] laser, suitable for PI fluorescence excitation (FV500, Olympus BioSystem). 10-15 fields were analysed with 40x oil/1.35NA or 60x oil/1.40NA objectives and images acquired with the Flowview 4.2b computer program.

## CC[C@H](C)[C@H](NC(=O)[C@H](CCCNC(=N)N)NC(=O)[C@H](CCCNC(=N)N)NC(=O)[C@H](CC(C)C)NC(=O)[C@H](CCC(=O)O)NC(=O)[C@H](CCC(N)=O)NC(=O)C(C)(C)NC(=O)[C@@H](NC(=O)[C@H](Cc1ccc(O)cc1)NC(=O)[C@@H](NC(=O)[C@H](CCC(=O)O)NC(=O)[C@@H]1CCCN1C(=O)[C@H](CCCNC(=N)N)NC(=O)[C@H](CCSC)NC(=O)[C@@H](N)CC(=O)O)[C@@H](C)CC)[C@@H](C)CC)C(=O)NCC(=O)N[C@@H](CC(=O)O)C(=O)N[C@@H](C)C(=O)N[C@@H](Cc1ccccc1)C(=O)N[C@@H](CC(N)=O)C(=O)NC(C)(C)C(=O)N[C@@H](Cc1ccc(O)cc1)C(=O)N[C@@H](CCCCN)C(=O)N[C@@H](CCCCN)C(=O)N[C@@H](Cc1c[nH]c2ccccc12)C(=O)N[C@@H](CCCCN)C(=O)N[C@@H](CCSC)C(=O)N[C@@H](CCCNC(=N)N)C(=O)N[C@@H](CCCNC(=N)N)C(=O)N[C@@H](CC(N)=O)C(=O)N1CCC[C@H]1C(=O)N[C@@H](Cc1ccccc1)C(=O)N[C@@H](Cc1c[nH]c2ccccc12)C(=O)N[C@H](C(=O)N[C@@H](CCCCN)C(=O)N[C@H](C(=O)N[C@@H](CCC(N)=O)C(=O)N[C@@H](CCCNC(=N)N)C(N)=O)[C@@H](C)CC)[C@@H](C)CC [Peptide 072RB] (H-DMRPEIYI[Aib]QELRRIGDAFN[Aib]YKKWKMRRNPFWIKIQR-NH2; N-terminus and C-terminus assumed)
U937, Jurkat, Namalwa
  cell growth compared to control cultures: progressive decrease of cell growth
[1]; normal peripheral lymphocytes, data not reported
  effect on cell viability and cell proliferation: cytostatic rather than cytotoxic
[1]; proliferating (PHA activated) lymphocytes, 10 µM
  ratio of viable cells, treated versus untreated: 0.82 ± 0.057
[1]; quiescent lymphocytes, 10 µM
  toxicity: quite negligible
  ratio of viable cells, treated versus untreated: 0.87 ± 0.05
Namalwa cells
  chromatin condensation and apoptotic body formation: exhibited chromatin condensation and apoptotic body formation
